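Cells were grown in 96-well plates and exposed to each compound for 48 hours at five concentrations; endpoints were interpolated linearly between bracketing concentrations, or set to the highest concentration if not reached. GI50 = concentration required for 50% inhibition of growth. TGI is the concentration that stops growth completely.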 Where a SMILES comes first, the peptide text is derived from it. [ ]: non-standard residue; d: D form. The star is where a group is joined. ξ: configuration not given here. ξNMeF = CNC(Cc1ccccc1)C(=O)O; NMeV = CN[C@H](C(=O)O)C(C)C; Boc = CC(C)(C)OC(=O)*; OBn = c1ccc(CO*)cc1

These results are taken from PubChem BioAssay (NCI).

Holding throughout (assay): NCI anticancer screen, dose series, 48 h
Experiment [1] has as its system CAKI-1 renal.
The subject of experiment [2] is COLO 205 colon.
In experiment [3] the test system is IGROV1 ovarian.
Experiment [4] has as its system OVCAR-8 ovarian.
The subject of experiment [5] is RXF 393 renal.
In experiment [6] the test system is SF-539 CNS.
Experiment [7] deals with SK-MEL-28 melanoma.
Experiment [8] deals with SK-MEL-5 melanoma.
Experiment [9] relates to SK-OV-3 ovarian.
Experiment [10] concerns UACC-257 melanoma.
In experiment [11] the test system is UACC-62 melanoma.
The subject of experiment [12] is DU-145 prostate.
Experiment [13] deals with HCC-2998 colon.
Experiment [14] has as its system M14 melanoma.
In experiment [15] the test system is T-47D breast.
The test system of experiment [16] is TK-10 renal.
The test system of experiment [17] is MALME-3M melanoma.
Experiment [18] relates to SR leukemia.

Take `C=C1CC(OC)(C(OC)C(=O)N[C@H]2OCO[C@H]3C2O[C@H](C[C@@H](COC)OC)C(C)(C)C3OC)O[C@H](C)[C@@H]1C` (some centres not stated): the TGI in experiment [1] stood at 3.6 µM; in experiment [2], 4.72 µM; in experiment [3], 12.3 µM; in [4], 6.89 µM; in experiment [5], 5.38 µM; in experiment [6] it was 2.85 µM. Further, the TGI was determined as 3.45 µM in experiment [7]; 1.3 µM in experiment [8]; 8.12 µM in [9]; 14.7 µM in experiment [10]; 3.72 µM in experiment [11].
As for `C/C(O)=C(\C=N\C(=S)N=Nc1c(O)[nH]c2ccccc12)C(=O)Nc1ccccc1C`, the TGI in experiment [1], in [2], in [12], in [13], in [3] and in [14] was above 100 µM in each case. Further, the TGI in experiment [4], in experiment [5], in experiment [6], in [7], in experiment [8] and in experiment [9] was above 100 µM each time. Moreover, the TGI in [15], in [16], in experiment [10] and in experiment [11] was above 100 µM in each case.
Take `C=C(C)[C@H]1CC[C@@]23O[C@@H]2[C@@H](C[C@@]2(C)CC(=O)[C@H](CC(=O)C1)O2)OC(=O)[C@@]12CC[C@H](C(=C)C)CC(=O)C[C@H]4O[C@](C)(CC4=O)C[C@@H](OC3=O)[C@@H]1O2`: the TGI in experiment [1], in experiment [2], in [12], in [13], in experiment [3] and in [14] was above 100 µM throughout. Also, the TGI in experiment [17], in [4], in experiment [5], in [6], in experiment [7] and in experiment [8] was above 100 µM in each case. Besides, the TGI in experiment [9], in experiment [15], in [16], in experiment [10] and in experiment [11] was above 100 µM throughout.
As to `Cc1cc(O)c2c(c1)C(=O)c1c(c(O)cc(O)c1-c1c(O)cc(O)c3c1C(=O)c1cc(C)cc(O)c1C3=O)C2=O`, the TGI in [1] is 51.4 µM; in experiment [2], above 71.7 µM; in experiment [13] it was 35.2 µM; in [3], 52.6 µM; in experiment [17], 65.2 µM; in experiment [4], 47 µM. The TGI in experiment [5] is 76.5 µM; in experiment [6] it was 36.6 µM; in experiment [7] it was 70.8 µM; in [8] it was 30.6 µM; in experiment [9], 62.6 µM; in experiment [10], 50 µM. The molecule further returned a TGI in experiment [11] of 25.4 µM.
Take `COc1ccc2c(c1)CCc1c-2[nH]c2cc3c(cc2c1=O)OCO3`: the TGI in experiment [1], in experiment [2], in [13], in experiment [3], in experiment [14] and in experiment [17] was above 100 µM in each case. Moreover, the TGI in experiment [4], in experiment [6], in [7], in experiment [9], in [18] and in [16] was above 100 µM each time. The molecule also showed a TGI in experiment [11] above 100 µM.
Take `Cc1cc(=O)oc2c1cc1ccc3cccc4ccc2c1c34`: the TGI in experiment [1], in experiment [2], in experiment [3], in experiment [14], in [17] and in experiment [4] was above 100 µM each time. In addition, the TGI in experiment [6], in experiment [7], in experiment [8], in [9], in experiment [16] and in experiment [11] was above 100 µM throughout.
With `Cc1ccc(Nc2cccc3c2C(=O)c2cccc(Nc4ccc(C)cc4S(=O)(=O)O)c2C3=O)c(S(=O)(=O)O)c1`, the TGI in [1], in experiment [2], in experiment [13], in experiment [3], in [14] and in experiment [17] was above 100 µM throughout. The TGI in experiment [4], in [5], in experiment [6], in experiment [7], in experiment [8] and in experiment [9] was above 100 µM in each case. The TGI in experiment [18], in [16], in experiment [10] and in [11] was above 100 µM each time.
In the case of `CCN(CC)C(=O)CCn1cc(F)c(=O)[nH]c1=O`, the TGI in experiment [2], in [3], in experiment [14], in [17], in [4] and in experiment [5] was above 100 µM throughout. The TGI in [6], in experiment [7], in experiment [8], in [18], in [16] and in experiment [11] was above 100 µM throughout.
Take `CNC(=O)C(C)Oc1ccc(OCC2CCCCC2)cc1` (configuration not stated): the TGI in experiment [3], in [14], in experiment [17], in [4], in [5] and in [6] was above 100 µM each time. The TGI in experiment [7], in experiment [8], in [9], in experiment [16], in [10] and in [11] was above 100 µM in each case.
In the case of `CNc1cc([N+](=O)[O-])ccc1C(=O)N1CCC[C@H]1CO`, the TGI in experiment [12], in experiment [3], in experiment [14], in [4], in [6] and in experiment [7] was above 100 µM in each case. The TGI in experiment [9], in [18], in [15], in [16], in experiment [10] and in experiment [11] was above 100 µM throughout.
As for `O=C(O)CCC(NC(=O)c1ccc(Nc2cnc3cc(C(F)(F)F)ccc3n2)cc1)C(=O)O` (configuration not stated), the TGI in experiment [2], in experiment [13], in experiment [3], in experiment [17], in experiment [4] and in [5] was above 100 µM in each case. The TGI in experiment [6], in experiment [7], in [8], in [9], in experiment [10] and in experiment [11] was above 100 µM throughout.
Regarding `Cc1cc(C)c(NS(=O)c2cccc(C(F)(F)F)c2)c(C)c1` (configuration not stated), the TGI in experiment [2], in experiment [12], in experiment [14], in [17], in experiment [4] and in experiment [5] was above 100 µM throughout. In addition, the TGI in [6], in experiment [7], in [18], in experiment [15], in experiment [16] and in experiment [10] was above 100 µM throughout.
Turning to `C=CCCCCCCCCCP(=O)(c1ccccc1)c1ccc2c(c1)OCCOCCOCCOCCO2` (configuration not stated), the TGI in [1] is above 100 µM; in [2] it was 31 µM; in experiment [13] it was 31.2 µM; in experiment [3] it was 30.2 µM; in experiment [14], above 100 µM; in experiment [17], 31.9 µM. Moreover, the TGI in [4] came out at 30.3 µM; in [5], 27.4 µM; in experiment [6], 31.9 µM; in [7], 30.1 µM; in experiment [8] it was 24.2 µM; in experiment [9], 34.8 µM. Moreover, the TGI came out at 22.8 µM in experiment [18], 32.4 µM in [16], 30.6 µM in [10] and 29.4 µM in experiment [11].
In the case of `CC[C@H](C)[C@@H]([C@@H](CC(=O)N1CCC[C@H]1[C@H](OC)[C@@H](C)C(=O)NCCc1ccccc1)OC)N(C)C(=O)C(NC(=O)[C@H](C(C)C)N(C)C)C(C)C` (some centres not stated), the TGI in [1] was above 10 µM; in experiment [2], 0.000267 µM; in [12], 0.000963 µM; in experiment [13] it was 0.00228 µM; in experiment [14], 0.000855 µM; in experiment [17], above 10 µM. In addition, the TGI is above 10 µM in [4]; above 10 µM in [5]; above 10 µM in experiment [7]; 3.48 µM in experiment [9]; above 10 µM in experiment [15]; above 10 µM in experiment [16]. The TGI in experiment [10] and in [11] was above 10 µM throughout. Also, the GI50 in experiment [9] was 0.00047 µM.
As to `CC(C)[C@@H](C(=O)N(C)[C@H](C(=O)N1CCC[C@H]1C(=O)OCc1ccccc1)C(C)C)N(C)C(=O)C(Cc1ccccc1)N(C)C(=O)[C@H](NC(=O)OC(C)(C)C)C(C)C` (some centres not stated) (Boc-[dV][ξNMeF][NMeV][NMeV]P-OBn), the TGI was above 31.6 µM in experiment [1]; above 100 µM in experiment [2]; above 31.6 µM in experiment [3]; above 100 µM in [14]; above 100 µM in experiment [17]; above 31.6 µM in [4]. Also, the TGI is above 31.6 µM in experiment [5]; above 31.6 µM in experiment [6]; above 31.6 µM in [7]; 23 µM in experiment [8]; above 31.6 µM in experiment [9]; above 31.6 µM in experiment [18]. The TGI in experiment [16], in experiment [10] and in [11] was above 31.6 µM throughout.
As for `O=C1c2ccccc2C(=O)N1CCCOCc1c[nH]c(=O)[nH]c1=O`, the TGI in experiment [1], in experiment [2], in [3], in experiment [14], in [17] and in [4] was above 100 µM each time. The TGI in [5], in experiment [6], in experiment [7], in experiment [8], in experiment [9] and in [16] was above 100 µM throughout. Also, the TGI in experiment [10] and in [11] was above 100 µM throughout.
As for `CN(c1ccccc1)c1cc2ccccc2nn1`, the TGI in experiment [1], in experiment [2], in [3], in [14], in [17] and in experiment [4] was above 100 µM in each case. Moreover, the TGI in [5], in experiment [6], in [7], in experiment [8], in experiment [9] and in experiment [18] was above 100 µM throughout. For the same molecule, the TGI in [16], in experiment [10] and in experiment [11] was above 100 µM in each case.
For `ICC1CCCO1` (configuration not stated), the TGI in [1], in experiment [2], in experiment [13], in experiment [3], in [14] and in [17] was above 100 µM each time. Further, the TGI in experiment [4], in experiment [5], in experiment [6], in [7], in experiment [8] and in experiment [18] was above 100 µM throughout. The TGI in [16] and in [10] was above 100 µM in each case.
As for `COc1cccc(NC(=O)CSc2nnc(Cc3ccccc3)o2)c1`, the TGI in experiment [1], in [2], in [13], in experiment [3], in experiment [14] and in experiment [17] was above 100 µM each time. In addition, the TGI in [4], in [5], in experiment [6], in experiment [7], in experiment [8] and in [9] was above 100 µM throughout. The TGI in [16], in experiment [10] and in experiment [11] was above 100 µM each time.
